# Measurements reported in US5739274A, “Active component of parathyroid hypertensive factor” (CV Technologies, Inc., priority 1995, dated 1998).
# What was measured:
# [1] = molecular target: T1, L-type Ca2+ channel (Rattus norvegicus, UniProt P22002); assay: Ca2+ channel study, whole cell patch clamp in single VSMC; format: cell-based; details: IBMX applied after FMOC-PHF
# T1 construct: single VSMC isolated form rat tail artery by using the whole cell version of the patch clamp technique; endogenous in cells; host or cells: freshly isolated vascular smooth muscle cells of rat tail artery
# T1 sequence (P22002 whole entry): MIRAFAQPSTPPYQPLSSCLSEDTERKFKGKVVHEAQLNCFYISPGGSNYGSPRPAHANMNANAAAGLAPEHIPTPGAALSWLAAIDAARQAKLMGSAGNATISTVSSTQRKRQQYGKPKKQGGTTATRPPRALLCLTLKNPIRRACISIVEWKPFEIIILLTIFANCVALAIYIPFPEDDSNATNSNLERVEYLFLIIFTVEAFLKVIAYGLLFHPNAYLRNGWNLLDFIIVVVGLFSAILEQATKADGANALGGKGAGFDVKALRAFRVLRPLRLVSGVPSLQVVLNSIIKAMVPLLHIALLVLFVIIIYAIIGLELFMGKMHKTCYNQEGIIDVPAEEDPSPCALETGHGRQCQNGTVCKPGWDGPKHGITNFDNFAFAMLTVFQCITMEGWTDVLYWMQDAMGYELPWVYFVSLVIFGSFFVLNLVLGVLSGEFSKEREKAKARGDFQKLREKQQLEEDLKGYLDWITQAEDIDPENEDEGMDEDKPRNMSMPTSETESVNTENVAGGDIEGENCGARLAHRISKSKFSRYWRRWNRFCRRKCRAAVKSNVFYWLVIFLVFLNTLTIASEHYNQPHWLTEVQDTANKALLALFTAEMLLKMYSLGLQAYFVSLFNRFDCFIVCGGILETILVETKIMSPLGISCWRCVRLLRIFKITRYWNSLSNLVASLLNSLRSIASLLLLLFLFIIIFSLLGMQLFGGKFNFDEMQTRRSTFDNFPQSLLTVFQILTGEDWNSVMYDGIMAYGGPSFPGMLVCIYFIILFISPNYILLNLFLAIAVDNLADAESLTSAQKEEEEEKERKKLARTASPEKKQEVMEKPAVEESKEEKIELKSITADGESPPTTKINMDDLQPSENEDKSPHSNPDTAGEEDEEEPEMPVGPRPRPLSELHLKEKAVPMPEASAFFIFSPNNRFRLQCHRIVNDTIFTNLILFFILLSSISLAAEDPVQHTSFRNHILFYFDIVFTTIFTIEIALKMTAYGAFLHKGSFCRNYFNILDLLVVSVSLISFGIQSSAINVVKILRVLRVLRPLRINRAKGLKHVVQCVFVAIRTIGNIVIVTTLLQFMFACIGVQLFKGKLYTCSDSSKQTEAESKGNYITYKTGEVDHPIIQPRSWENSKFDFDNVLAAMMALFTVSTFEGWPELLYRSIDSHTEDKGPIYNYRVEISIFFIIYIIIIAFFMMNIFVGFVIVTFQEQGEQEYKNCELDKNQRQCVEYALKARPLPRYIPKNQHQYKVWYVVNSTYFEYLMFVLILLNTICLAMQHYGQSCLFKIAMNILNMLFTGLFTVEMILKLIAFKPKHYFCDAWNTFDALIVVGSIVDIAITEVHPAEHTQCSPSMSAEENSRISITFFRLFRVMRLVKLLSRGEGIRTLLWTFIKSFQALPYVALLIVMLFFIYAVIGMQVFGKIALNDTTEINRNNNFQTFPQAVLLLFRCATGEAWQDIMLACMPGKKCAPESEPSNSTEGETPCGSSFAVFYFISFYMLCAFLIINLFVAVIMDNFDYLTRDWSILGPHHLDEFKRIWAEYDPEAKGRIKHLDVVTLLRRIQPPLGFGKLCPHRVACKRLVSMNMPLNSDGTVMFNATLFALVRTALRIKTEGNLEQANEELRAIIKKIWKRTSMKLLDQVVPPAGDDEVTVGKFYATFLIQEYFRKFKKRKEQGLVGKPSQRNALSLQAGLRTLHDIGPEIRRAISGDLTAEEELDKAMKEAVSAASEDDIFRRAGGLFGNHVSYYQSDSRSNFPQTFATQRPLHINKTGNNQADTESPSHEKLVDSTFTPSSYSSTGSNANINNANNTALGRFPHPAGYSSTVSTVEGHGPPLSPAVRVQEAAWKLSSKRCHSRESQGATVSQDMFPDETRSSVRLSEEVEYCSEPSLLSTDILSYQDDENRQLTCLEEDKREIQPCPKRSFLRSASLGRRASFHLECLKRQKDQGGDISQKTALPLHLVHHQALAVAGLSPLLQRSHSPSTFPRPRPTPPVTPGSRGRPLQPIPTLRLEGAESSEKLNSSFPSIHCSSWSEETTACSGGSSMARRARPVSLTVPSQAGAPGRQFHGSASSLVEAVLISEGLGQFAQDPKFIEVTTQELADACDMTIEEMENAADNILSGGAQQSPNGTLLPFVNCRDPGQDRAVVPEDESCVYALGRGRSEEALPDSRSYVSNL
# T1 sequence (P54290 25-944 partner limits assumed): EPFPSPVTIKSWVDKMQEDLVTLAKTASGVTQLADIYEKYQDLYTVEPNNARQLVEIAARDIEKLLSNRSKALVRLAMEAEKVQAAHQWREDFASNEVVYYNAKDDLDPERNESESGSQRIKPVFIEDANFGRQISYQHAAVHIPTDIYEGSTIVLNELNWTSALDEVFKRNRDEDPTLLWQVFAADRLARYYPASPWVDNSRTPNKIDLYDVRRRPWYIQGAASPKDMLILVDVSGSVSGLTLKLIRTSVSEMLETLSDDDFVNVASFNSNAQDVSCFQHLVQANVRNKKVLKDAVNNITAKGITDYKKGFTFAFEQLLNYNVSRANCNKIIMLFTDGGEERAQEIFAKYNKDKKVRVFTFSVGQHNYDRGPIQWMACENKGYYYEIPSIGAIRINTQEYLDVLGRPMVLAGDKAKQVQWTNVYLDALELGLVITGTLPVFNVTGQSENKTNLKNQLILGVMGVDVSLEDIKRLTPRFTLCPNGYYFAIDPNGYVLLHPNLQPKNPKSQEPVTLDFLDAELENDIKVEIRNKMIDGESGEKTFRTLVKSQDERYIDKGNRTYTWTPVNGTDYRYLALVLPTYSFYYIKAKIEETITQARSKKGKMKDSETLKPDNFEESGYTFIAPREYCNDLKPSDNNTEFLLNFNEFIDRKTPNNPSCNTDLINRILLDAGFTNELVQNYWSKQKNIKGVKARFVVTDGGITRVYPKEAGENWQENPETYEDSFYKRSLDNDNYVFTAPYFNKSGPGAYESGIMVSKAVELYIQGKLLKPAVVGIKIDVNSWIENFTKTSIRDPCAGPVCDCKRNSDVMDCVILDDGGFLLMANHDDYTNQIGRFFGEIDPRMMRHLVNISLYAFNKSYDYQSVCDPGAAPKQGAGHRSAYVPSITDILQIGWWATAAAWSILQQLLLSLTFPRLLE
# T1 sequence (P54290 945-1091 partner limits assumed): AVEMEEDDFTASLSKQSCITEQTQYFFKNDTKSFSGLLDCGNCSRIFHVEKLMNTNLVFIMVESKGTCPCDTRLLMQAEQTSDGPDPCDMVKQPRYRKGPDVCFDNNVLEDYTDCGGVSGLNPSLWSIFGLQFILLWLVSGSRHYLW
# T1 sequence (P54287 whole entry partner): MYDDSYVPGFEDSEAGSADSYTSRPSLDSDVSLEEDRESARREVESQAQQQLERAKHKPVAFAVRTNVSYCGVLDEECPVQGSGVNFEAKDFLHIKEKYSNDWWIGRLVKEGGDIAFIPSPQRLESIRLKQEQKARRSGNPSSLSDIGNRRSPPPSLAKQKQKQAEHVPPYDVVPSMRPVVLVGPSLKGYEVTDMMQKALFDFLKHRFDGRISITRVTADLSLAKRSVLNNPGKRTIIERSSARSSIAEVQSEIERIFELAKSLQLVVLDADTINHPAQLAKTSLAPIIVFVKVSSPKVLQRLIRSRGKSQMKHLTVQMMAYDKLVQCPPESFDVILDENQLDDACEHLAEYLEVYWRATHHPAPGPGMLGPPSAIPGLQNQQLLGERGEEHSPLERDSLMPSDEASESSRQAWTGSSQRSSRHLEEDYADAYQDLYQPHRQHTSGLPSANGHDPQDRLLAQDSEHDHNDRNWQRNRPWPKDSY
# Method: Ca^2+ channel activity was determined in single VSMC isolated form rat tail artery by using the whole cell version of the patch clamp technique (Hamill et al., 1981). Whole cell Ca^2+ current measurements were carried out by using an Axopatch-1B patch clamp amplifier (Axon Instruments). Patch micropipettes were pulled from borosilicate thin wall glass capillary tubes (OD 1.2 mm, ID 0.9 mm, FHS, Brunswick, Maine, USA) with a two stage micropipette puller (Narishige, PP83, Japan). The micropipettes were fire polished using a microforge (Leitz, Wetzlar, Germany). The tip diameter was approximately 1 μm with a resistance of 2-8 Mega Ohms. The cell attached to the bottom of a 3 cm Petri dish and was bathed in the medium containing 110 mM Tris, 5 mM CsCl, 20 mM HEPES, 30 mM glucose, 20 mM BaCl2, and 0.5 μM TTX. The polished pipette filled with a solution containing 75 mM Cs2 -aspartate, 10 mM EGTA, 2 mM ATP, 5 mM MgCl2, 5 mM K-pyruvate, 5 mM K-succinate, 25 mM glucose, 15 mM HEPES, 5 mM creatine phosphate-Na2, and 50 units/ml creatine kinase was placed against the cell membrane using a Narishige hydraulic micromanipulator. Gentle suction was applied via a tubing attached to the pipette holder. […] The currents were monitored using a digital oscilloscope (Nicolet Instrument Co., Madison, Wis., U.S.A.) and filtered at 3 KHz with a low pass filter (Axon Instruments, Foster City, Calif., U.S.A.). […]
# [2] = test system: SD rats; assay: Blood pressure bioassay, bolus injection into anesthetized normotensive SD rats; format: in vivo; details: normotensive rat, as in Example 1
# Method: SD rats were anesthetized using Na pentobarbital, (50 mg/kg, i.p.) and catheters were inserted in the jugular vein for injection of plasma and drugs and in the carotid artery for measurement of b.p.
# The chloroform methanol extract of SHR plasma was redissolved in saline and administered by bolus injection.
# [3] = test system: Na+ K+ ATPase; assay: Na+ K+ ATPase activity as ouabain-sensitive 86Rb uptake in rat tail artery; format: cell-based
# Method: Na^+ K^+ ATPase activity was measured as the ouabain-sensitive ^86 Rb uptake in rat tail artery using the method of Deth et al. Briefly, male Sprague-Dawley rats weighing 300 to 400 g were sacrificed by pentobarbital overdose, and the tail arteries removed and cut into strips. The strips were rinsed in ice-cold Krebs solution (composition: NaCl, 117 mM; KCl, 5 mM; NaHCO3, 27 mM, NaH2 PO4, 1 mM, MgSO4, 1.2 mM, CaCl2, 1.25 mM, glucose 11.0 mM) and incubated in oxygenated (95% O2, 5% CO2) Krebs buffer at 37° C. for 2 hours. For the final 30 minutes, Krebs solution with no KCl and 122 mM NaCl was used to sodium-load the tissues. Following this incubation, the strips were transferred to tubes containing Krebs buffer and 1 μCi of ^86 Rb, giving a final […] concentration of 5 mM. Various incubation media consisting of the above-described incubation solution plus 30% SHR plasma (Rb concentration kept constant in all cases) plus 1 mM ouabain and incubation plus 30% plasma plus 1 mM ouabain. Strips were incubated in the respective solutions for 18 minutes, then rinsed in four changes of ice-cold Krebs solution, blotted, weighed and counted in a gamma counter. The effect of the various incubations on ^86 Rb uptake was analyzed by ANOVA using the Student-Neuman-Keuuls test for post-hoc comparisons. All results are expressed as mean±SD.
# [4] = test system: rat tail artery; assay: Blood vessel tension measurement, norepinephrine-induced tension in helical strips; format: cell-based; details: 40 mins incubation before second NE doses
# Method: The method was essentially similar to the one described by Pang, et al. (1980). Sprague-Dawley rats of either sex were anesthetized with pentobarbital (50 mg/kg) and the tail artery or aorta were isolated and removed and then placed in KHS buffer (115 mM NaCl, 5 mM KCl, 2.1 mM CaCl2, 1.2 mM MgSO4, 1.2 mM NaH2 PO4, 25 mM NaHCO3, and 11 mM glucose) oxygenated with 95% O2, 5% CO2. The vessels were cut helically and strips of approximately 1.5 cm were secured in a Sawyer-Bartlestone chamber containing KHS. The force development of the helical strips was measured with a Grass FT 0.03 force displacement transducer and recorded on a Grass Model 79D polygraph. Isolated tail artery helical strips were equilibrated for 1 hour prior to addition of any vasoconstricting agents. The strips were preloaded with a resting tension of 0.7 g and incubated at 37° C. (Pang et al., 1985). In all cases, the responsiveness of strips was first tested by adding 60 mM KCl and only responsive tissue was used in experiments. There were two series of experiments.
# Two consecutive dose responses to NE in tension development with 1 hour interval were compared. The tissue was washed out after adding first accumulated doses of NE and incubated in normal KHS buffer for 20 mins. The control solvent or testing substances (PHF or LP compounds) were then applied and incubated for another 40 mins. […]
# [5] = test system: CaM (calmodulin)-Dependent PDE; assay: Activation of CaM-dependent PDE (cGMP-PDE activity); format: biochemical
# Method: The measurement of cGMP-PDE activity is based on the conversion of [^3 H]cGMP into [^3 H]GMP and its subsequent hydrolysis by snake venom into [^3 H]Guanosine (Wallace, et al., 1983; Wells, et al., 1975). The testing substance was added to a mixture containing 60 mM TES, 3 mM MgCl2, 0.8 mg/ml BSA, 25 μM EGTA, 50 uM CaCl2, 1 mM DTT, 0.5 μM cGMP and [^3 H]-cGMP (10-15×10^3 cpm) at a final pH of 7.5 for a total volume of 200 μl. The reaction was started by the addition of a fixed quantity of CaM-deficient PDE (Sigma Chemical Co., St. Louis, Mo.). Incubation carried out for 15 mins at 30° C., was terminated by boiling for 5 mins. The second reaction was initiated by the addition of 20 μl (10 mg/ml) of snake venom (Crotalus atrox). After 10 mins., the incubation was stopped with 700 μl of a second termination medium containing 0.1 mM guanosine. The total incubation mixture was then applied onto a column of QAE-Sephadex A-25 (formate form) to separate labeled nucleotides from the labeled nucleosides formed. The resin was eluted with 4 ml of 20 mM ammonium formate (pH 6.5), and the radioactivity of the eluate containing [^3 H]guanosine was determined in a liquid scintillation counter. A standard curve of PDE stimulation by CaM was obtained by the addition of different concentrations of purified bovine heart CaM (Sigma) (0.1-200 ng/tube). […]
# [6] = test system: vascular smooth muscle cells isolated from rat tail artery; assay: Intracellular calcium determination (fura-2); format: cell-based; details: 45 mins incubation before KCl; 30 mM KCl for pure PHF, 15 mM KCl for FMOC-PHF
# Method: All studies were performed in vascular smooth muscle cells isolated from Sprague Dawley (SD) rat tail artery as described in Wang, et al. (Wang, et al. 1989) with modification. Male SD rats (100-200 g body weight) were anaesthetized with sodium pentobarbital (65 mg/kg body weight intraperitoneally) and the tail artery dissected out and immersed in cold Ca and Mg free Hanks' balanced salt solution (HBSS, Gibco). The blood was washed off from the artery and the connective tissue was then removed. Using a dissecting microscope inside a laminar flow hood, the artery was cut into pieces of about 1.5 cm and placed in 4° C. Ca free HBSS for 30 minutes. […]
# Primary cultured vascular smooth muscle cells were incubated for 45 minutes in DMEM containing 5 μM fura-2 acetoxymethyl ester (Molecular Probes, INC.) at room temperature. […] After about 5 min, the coverslip with attached cells was placed in a Sykes-Moore chamber of 1-ml volume on the stage of an inverted microscope, and fluorescence measurements were made with a Fluoroplex III sepctrofluorometer (Tracor Northern). […] R is the ratio of fluorescence in the sample excited at […] which represents intracellular free calcium concentration. […]
# The monolayer cells in 1 mM Ca^2+ 5K buffer were challenged by testing substances and the change of R was recorded for a certain period of time. […]
compound,measurement,setting,value
CC(C)Cn1c(=O)n(C)c(=O)c2[nH]cnc21 [IBMX],effect on calcium channel current increased by FMOC-PHF,[1],reversal
Lysophosphatidyl inositol,hypertensive response (blood pressure in normotensive rats),[2],"delayed, sustained increase in blood pressure"
same,increase in 86Rb uptake,"[3]; 600 micromolar, p<0.05",31%
same,effect on norepinephrine induced tension development,[4],potentiations of norepinephrine induced tension
Lysophosphatidyl serine,hypertensive response (blood pressure in normotensive rats),[2],delayed sustained increase in blood pressure
same,increase in 86Rb uptake,"[3]; 30 micromolar, p<0.01",46%
same,effect on phosphodiesterase (PDE) activity,[5],stimulated PDE activity
lysophosphatidyl choline [LPC],effect on intracellular calcium ([Ca2+]i increment induced by KCl),[6],significantly augments the increase in intracellular calcium induced by KCl
